Measured values from patent US7235574B2, “Pentafluorosulfanyl compounds” (Hoffmann-La Roche Inc., priority 2004, dated 2007).

Assays:
HER2 = molecular target: T1, HER2 (Homo sapiens, UniProt P04626); experiment: Inhibition of HER2 Phosphorylation in Calu3 Tumor Cell Line; type: cell-based; settings: Calu3 cells; for percentage of inhibition of HER2 phosphorylation compared with the reference compound: comparison with reference compound (Example 4, p. 88, WO 01/77107); for inhibition at 1 µM: Calu-3, read-out: Percent inhibition of HER2-phosphorylation
T1 construct: endogenous in cells; host or cells: Calu3 tumor cell line
T1 sequence (P04626 23-1255): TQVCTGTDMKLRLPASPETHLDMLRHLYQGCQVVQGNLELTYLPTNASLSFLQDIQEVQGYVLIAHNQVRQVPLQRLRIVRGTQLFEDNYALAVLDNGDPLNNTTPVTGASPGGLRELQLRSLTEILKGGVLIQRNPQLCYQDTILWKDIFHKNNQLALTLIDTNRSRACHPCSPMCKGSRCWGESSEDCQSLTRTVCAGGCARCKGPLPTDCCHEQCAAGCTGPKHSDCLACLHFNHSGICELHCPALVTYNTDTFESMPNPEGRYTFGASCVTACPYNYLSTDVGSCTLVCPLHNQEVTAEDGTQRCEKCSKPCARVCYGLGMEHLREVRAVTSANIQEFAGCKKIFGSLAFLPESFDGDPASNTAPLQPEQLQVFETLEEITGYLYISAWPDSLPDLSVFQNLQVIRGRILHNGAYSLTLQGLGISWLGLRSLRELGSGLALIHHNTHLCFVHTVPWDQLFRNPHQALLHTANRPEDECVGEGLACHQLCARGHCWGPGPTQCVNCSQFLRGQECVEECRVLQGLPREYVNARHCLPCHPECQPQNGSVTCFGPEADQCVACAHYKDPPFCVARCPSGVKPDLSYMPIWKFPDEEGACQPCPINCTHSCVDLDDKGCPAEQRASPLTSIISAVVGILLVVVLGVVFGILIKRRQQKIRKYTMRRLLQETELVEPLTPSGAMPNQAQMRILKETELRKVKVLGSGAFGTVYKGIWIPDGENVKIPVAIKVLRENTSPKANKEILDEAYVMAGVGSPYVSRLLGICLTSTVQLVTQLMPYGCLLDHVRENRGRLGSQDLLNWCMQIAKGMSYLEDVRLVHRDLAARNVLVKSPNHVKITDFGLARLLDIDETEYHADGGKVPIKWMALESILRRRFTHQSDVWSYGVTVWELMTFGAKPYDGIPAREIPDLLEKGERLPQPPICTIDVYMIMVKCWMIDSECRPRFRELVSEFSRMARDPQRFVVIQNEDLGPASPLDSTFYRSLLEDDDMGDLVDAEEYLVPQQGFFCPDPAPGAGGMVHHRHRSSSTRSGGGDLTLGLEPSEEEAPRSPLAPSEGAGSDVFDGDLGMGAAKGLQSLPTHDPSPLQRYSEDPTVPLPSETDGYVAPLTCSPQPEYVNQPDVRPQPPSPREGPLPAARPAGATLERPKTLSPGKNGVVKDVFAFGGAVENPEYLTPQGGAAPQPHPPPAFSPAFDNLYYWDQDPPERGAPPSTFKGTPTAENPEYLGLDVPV
Protocol: Inhibition of HER2 Phosphorylation in Calu3 Tumor Cell Line
2×10^5 Calu3 cells per well were plated in a 12-well plate. After 4 days cells were starved for 16 h in DMEM (Dulbecco's Modified Eagle Medium)/0.5% FCS/1% glutamine. During this time cells were incubated with […] of a compound according to this invention. Afterwards cells were lysed in lyses buffer containing 1% Triton, 10% glycerol, 1 mM EGTA, 1.5 mM MgCl2, 150 mM NaCl, 50 mM Hepes pH 7.5, 1 mM PMSF, 10 μg/mL aprotinin and […] orthovanadate. Cell lysates were analyzed on a SDS PAGE and after transfer to a nitrocellulose membrane detected with a rabbit antibody specifically recognizing the pY 1248 in HER2 (Cell Signaling). After incubation with an anti rabbit antibody coupled to POD (Peroxidase from Biorad, Munich, Germany) signals were detected by chemiluminescence (ECL, Amersham). Inhibition of HER2 phosphorylation is calculated as percentage of the DMSO treated control. This percentage is calculated according to the following formula: Inhibition in %=100−(Phosphorylated-HER2-Signal of Test Sample*100/Phosphorylated-HER2-Signal DMSO-control).

[1] = compound concentration 1 μM, 16 h incubation, pY 1248 in HER2, percentage of the DMSO treated control

Row | Compound | inhibition at 1 µM (HER2; [1]) [%] | Percent inhibition of HER2-phosphorylation (HER2; [1]) [%] | melting point [°C] | percentage of inhibition of HER2 phosphorylation compared with the reference compound (HER2)
1 | FS(F)(F)(F)(F)c1ccc(C=Cc2nc(COc3ccc(CCCCn4ccnc4)cc3)co2)cc1 [example 1, 4-[4-(4-Imidazol-1-yl-butyl)-phenoxymethyl]-2-[2-(4-pentafluorosulfanyl-phenyl)-vinyl]-oxazole] | 87.5 |  |  | higher percentage of inhibition of phosphorylation
2 | O=S(=O)(CCn1ccnn1)Cc1ccc(OCc2coc(/C=C/c3ccc(S(F)(F)(F)(F)F)cc3)n2)cc1 [example 11, 1-[2-(4-{2-[(E)-2-(4-Pentafluorosulfanyl-phenyl)-vinyl]-oxazol-4-ylmethoxy}-phenylmethanesulfonyl)-ethyl]-1H-[1,2,3]triazole] | 59.7 |  |  | higher percentage of inhibition of phosphorylation
3 | O=S(=O)(NCCn1ccnn1)c1ccc(OCc2coc(C=Cc3ccc(S(F)(F)(F)(F)F)cc3)n2)cc1 [example 14, N-(2-[1,2,3]Triazol-1-yl-ethyl)-4-{2-[2-(4-pentafluorosulfanyl-phenyl)-vinyl]-oxazol-4-ylmethoxy}-benzenesulfonamide] | 71.7 |  | 170 to 172 | higher percentage of inhibition of phosphorylation
4 | FS(F)(F)(F)(F)c1ccc(C=Cc2nc(CNc3ccc(CCCCn4ccnn4)cc3)co2)cc1 [example 16, [4-(4-[1,2,3]Triazol-1-yl-butyl)-phenyl]-{2-[2-(4-pentafluorosulfanyl-phenyl)-vinyl]-oxazol-4-ylmethyl}-amine] | 91.9 |  |  | higher percentage of inhibition of phosphorylation

The next lines start with results.

Row | inhibition at 1 µM (HER2; [1]) [%] | Percent inhibition of HER2-phosphorylation (HER2; [1]) [%] | melting point [°C] | Compound | percentage of inhibition of HER2 phosphorylation compared with the reference compound (HER2)
5 | 86.1 |  |  | FS(F)(F)(F)(F)c1ccc(/C=C/c2nc(COc3ccc(CCCCn4ccnn4)cc3)co2)cc1 [example 4, 1-[4-(4-{2-[(E)-2-(-4-Pentafluorosulfanyl-phenyl)-vinyl]-oxazol-4-ylmethoxy}-phenyl)-butyl]-1H-[1,2,3]triazole] | higher percentage of inhibition of phosphorylation
6 |  | 52.9 |  | FS(F)(F)(F)(F)c1ccc(C=Cc2nc(COc3ccc(COCCn4ccnn4)cc3)co2)cc1 [example 9, 1-[2-(4-{2-[-4-(Pentafluorosulfanyl-phenyl)-vinyl]-oxazol-4-ylmethoxy}-benzyloxy)-ethyl]-1H-[1,2,3]-triazole] | higher percentage of inhibition of phosphorylation
7 | 68.8 |  |  | FS(F)(F)(F)(F)c1ccc(C=Cc2nc(COc3ccc(C=CCCn4ccnn4)cc3)co2)cc1 [example 12, 1-[4-(4-{2-[2-(4-Pentafluorosulfanyl-phenyl)-vinyl]-oxazol-4-ylmethoxy}-phenyl)-but-3-enyl]-1H-[1,2,3]triazole] | higher percentage of inhibition of phosphorylation
8 | 97.5 |  |  | FS(F)(F)(F)(F)c1ccc(C=Cc2nc(COc3ccc(OCCCn4ccnn4)cc3)co2)cc1 [example 15, 1-[3-(4-{2-[2-(4-Pentafluorosulfanyl-phenyl)-vinyl]-oxazol-4-ylmethoxy}-phenoxy)-propyl]-1H-[1,2,3]triazole] | higher percentage of inhibition of phosphorylation
